Test results published in US8388931B2, “99m Tc-labeled triphenylphosphonium derivative contrasting agents and molecular probes for early detection and imaging of breast tumors” (priority 2008, dated 2013).
Where two headings read alike, the source gives them in different places.

Experiments:
[1] = for Radioactivity Uptake, Bone: Bone (non-organ); for Radioactivity Uptake, Fat: Fat (non-organ); for Radioactivity Uptake, Muscle: Muscle (non-organ); for Radioactivity Uptake, Urine: Urine (non-organ)
Procedure: Rats (n=3) were sacrificed at 1, 3, 5, 10, 30 and 60 min after injection and the distribution of radioactivity in different tissues was determined by gamma well counting with an energy window of 140±15 keV. The biodistribution data is expressed in terms of percentage injected dosage per gram (% ID/g) with mean±standard deviation. Urine samples were collected from the bladder at 30 min after injection, and were analyzed by radioHPLC to determine the presence of metabolic derivatives of the radiotracer. […] Specifically, anterior planar whole-body dynamic images were acquired on an XRT gamma camera (General Electric) using a high-resolution medium energy parallel-hole collimator at one frame per minute for 60 min, with 512×512 matrix, and an energy window of 140±15 keV.

[2] = Comparative study: myocardial and hepatic uptake of 99mTc-MIBI versus 99mTc-Mito10-MAG3; type: in vivo, rats; conditions: rats
Procedure: ^99mTc-MIBI of clinical formulation was purchased from Bristol Myers Squibb. […] Dynamic images were acquired in identical fashion following 99mTc-MIBI injection.
In a comparative study, the myocardial uptake of ^99mTc-MIBI peaked at 2.70±0.4% ID/g within minutes after injection, and remained above 2.41±0.3% ID/g for at least 90 min. Comparatively, the myocardial uptake level of ^99mTc-Mito10-MAG 3 is 10, 40, and 120 fold lower than the uptake level of ^99mTc-MIBI at 3, 10 and 30 min after injection. The hepatic uptake of ^99mTc-MIBI was at 0.37±0.14% ID/g at 30 min after injection.

SMILES: CC(=O)[S+]1CC(=O)[N]2CC(=O)[N]3CC(=O)[N](CC(=O)NCCCCCCCCCC[P+](c4ccccc4)(c4ccccc4)c4ccccc4)[99Tc]321=[O].[Br-] (stereo not drawn) [^99mTc-Mito10-MAG3]
- Radioactivity Uptake, Bone ([1]; 1 min after injection, rats): 0.12 ± 0.05 % ID/g
- Radioactivity Uptake, Bone ([1]; 3 min after injection, rats): 0.05 ± 0.01 % ID/g
- Radioactivity Uptake, Bone ([1]; 5 min after injection, rats): 0.02 ± 0.24 % ID/g
- Radioactivity Uptake, Bone ([1]; 10 min after injection, rats): 0.04 ± 0.03 % ID/g
- Radioactivity Uptake, Bone ([1]; 30 min after injection, rats): 0.01 ± 0.01 % ID/g
- Radioactivity Uptake, Bone ([1]; 60 min after injection, rats): 0.00 ± 0.00 % ID/g
- Radioactivity Uptake, Brain ([1]; 1 min after injection, rats): 0.04 ± 0.03 % ID/g
- Radioactivity Uptake, Brain ([1]; 3 min after injection, rats): 0.02 ± 0.01 % ID/g
- Radioactivity Uptake, Brain ([1]; 5 min after injection, rats): 0.04 ± 0.03 % ID/g
- Radioactivity Uptake, Brain ([1]; 10 min after injection, rats): 0.01 ± 0.00 % ID/g
- Radioactivity Uptake, Brain ([1]; 30 min after injection, rats): 0.01 ± 0.01 % ID/g
- Radioactivity Uptake, Brain ([1]; 60 min after injection, rats): 0.00 ± 0.00 % ID/g
- Radioactivity Uptake, Colon ([1]; 1 min after injection, rats): 0.09 ± 0.04 % ID/g
- Radioactivity Uptake, Colon ([1]; 3 min after injection, rats): 0.08 ± 0.03 % ID/g
- Radioactivity Uptake, Colon ([1]; 5 min after injection, rats): 0.02 ± 0.01 % ID/g
- Radioactivity Uptake, Colon ([1]; 10 min after injection, rats): 0.03 ± 0.01 % ID/g
- Radioactivity Uptake, Colon ([1]; 30 min after injection, rats): 0.04 ± 0.03 % ID/g
- Radioactivity Uptake, Colon ([1]; 60 min after injection, rats): 0.01 ± 0.00 % ID/g
- Radioactivity Uptake, Fat ([1]; 1 min after injection, rats): 0.04 ± 0.02 % ID/g
- Radioactivity Uptake, Fat ([1]; 3 min after injection, rats): 0.06 ± 0.01 % ID/g
- Radioactivity Uptake, Fat ([1]; 5 min after injection, rats): 0.07 ± 0.05 % ID/g
- Radioactivity Uptake, Fat ([1]; 10 min after injection, rats): 0.07 ± 0.03 % ID/g
- Radioactivity Uptake, Fat ([1]; 30 min after injection, rats): 0.01 ± 0.00 % ID/g
- Radioactivity Uptake, Fat ([1]; 60 min after injection, rats): 0.00 ± 0.00 % ID/g
- Radioactivity Uptake, Heart ([1]; 1 min after injection, rats): 0.20 ± 0.08 % ID/g
- Radioactivity Uptake, Heart ([1]; 3 min after injection, rats): 0.27±0.04 % ID/g
- Radioactivity Uptake, Heart ([1]; 5 min after injection, rats): 0.18 ± 0.07 % ID/g
- Radioactivity Uptake, Heart ([1]; 10 min after injection, rats): 0.06±0.01 % ID/g
- Radioactivity Uptake, Heart ([1]; 30 min after injection, rats): 0.02±0.02 % ID/g
- Radioactivity Uptake, Heart ([1]; 60 min after injection, rats): 0.01 ± 0.00 % ID/g
- Radioactivity Uptake, Kidneys ([1]; 1 min after injection, rats): 2.30 ± 0.55 % ID/g
- Radioactivity Uptake, Kidneys ([1]; 3 min after injection, rats): 3.69 ± 0.92 % ID/g
- Radioactivity Uptake, Kidneys ([1]; 5 min after injection, rats): 3.06 ± 1.41 % ID/g
- Radioactivity Uptake, Kidneys ([1]; 10 min after injection, rats): 1.79 ± 0.39 % ID/g
- Radioactivity Uptake, Kidneys ([1]; 30 min after injection, rats): 1.40 ± 0.96 % ID/g
- Radioactivity Uptake, Kidneys ([1]; 60 min after injection, rats): 0.75 ± 0.59 % ID/g
- Radioactivity Uptake, Liver ([1]; 1 min after injection, rats): 3.23±1.10 % ID/g
- Radioactivity Uptake, Liver ([1]; 3 min after injection, rats): 2.41 ± 1.12 % ID/g
- Radioactivity Uptake, Liver ([1]; 5 min after injection, rats): 1.50 ± 0.84 % ID/g
- Radioactivity Uptake, Liver ([1]; 10 min after injection, rats): 0.89 ± 0.30 % ID/g
- Radioactivity Uptake, Liver ([1]; 30 min after injection, rats): 0.32±0.02 % ID/g
- Radioactivity Uptake, Liver ([1]; 60 min after injection, rats): 0.21 ± 0.07 % ID/g
- Radioactivity Uptake, Lung ([1]; 1 min after injection, rats): 0.82 ± 1.05 % ID/g
- Radioactivity Uptake, Lung ([1]; 3 min after injection, rats): 0.31 ± 0.14 % ID/g
- Radioactivity Uptake, Lung ([1]; 5 min after injection, rats): 0.48 ± 0.43 % ID/g
- Radioactivity Uptake, Lung ([1]; 10 min after injection, rats): 0.23 ± 0.24 % ID/g
- Radioactivity Uptake, Lung ([1]; 30 min after injection, rats): 0.05 ± 0.01 % ID/g
- Radioactivity Uptake, Lung ([1]; 60 min after injection, rats): 0.03 ± 0.01 % ID/g
- Radioactivity Uptake, Muscle ([1]; 1 min after injection, rats): 0.05 ± 0.02 % ID/g
- Radioactivity Uptake, Muscle ([1]; 3 min after injection, rats): 0.03 ± 0.01 % ID/g
- Radioactivity Uptake, Muscle ([1]; 5 min after injection, rats): 0.06 ± 0.01 % ID/g
- Radioactivity Uptake, Muscle ([1]; 10 min after injection, rats): 0.06 ± 0.01 % ID/g
- Radioactivity Uptake, Muscle ([1]; 30 min after injection, rats): 0.02 ± 0.01 % ID/g
- Radioactivity Uptake, Muscle ([1]; 60 min after injection, rats): 0.01 ± 0.00 % ID/g
- Radioactivity Uptake, Pancreas ([1]; 1 min after injection, rats): 0.32 ± 0.22 % ID/g
- Radioactivity Uptake, Pancreas ([1]; 3 min after injection, rats): 0.27 ± 0.12 % ID/g
- Radioactivity Uptake, Pancreas ([1]; 5 min after injection, rats): 0.20 ± 0.17 % ID/g
- Radioactivity Uptake, Pancreas ([1]; 10 min after injection, rats): 0.12 ± 0.04 % ID/g
- Radioactivity Uptake, Pancreas ([1]; 30 min after injection, rats): 0.01 ± 0.00 % ID/g
- Radioactivity Uptake, Pancreas ([1]; 60 min after injection, rats): 0.02 ± 0.01 % ID/g
- Radioactivity Uptake, Skin ([1]; 1 min after injection, rats): 0.07 ± 0.03 % ID/g
- Radioactivity Uptake, Skin ([1]; 3 min after injection, rats): 0.10 ± 0.04 % ID/g
- Radioactivity Uptake, Skin ([1]; 5 min after injection, rats): 0.12 ± 0.08 % ID/g
- Radioactivity Uptake, Skin ([1]; 10 min after injection, rats): 0.05 ± 0.04 % ID/g
- Radioactivity Uptake, Skin ([1]; 30 min after injection, rats): 0.04 ± 0.03 % ID/g
- Radioactivity Uptake, Skin ([1]; 60 min after injection, rats): 0.02 ± 0.01 % ID/g
- Radioactivity Uptake, Small Intestine ([1]; 1 min after injection, rats): 0.18 ± 0.04 % ID/g
- Radioactivity Uptake, Small Intestine ([1]; 3 min after injection, rats): 0.67 ± 0.30 % ID/g
- Radioactivity Uptake, Small Intestine ([1]; 5 min after injection, rats): 0.48 ± 0.14 % ID/g
- Radioactivity Uptake, Small Intestine ([1]; 10 min after injection, rats): 0.50 ± 0.19 % ID/g
- Radioactivity Uptake, Small Intestine ([1]; 30 min after injection, rats): 0.52 ± 0.20 % ID/g
- Radioactivity Uptake, Small Intestine ([1]; 60 min after injection, rats): 0.36 ± 0.41 % ID/g
- Radioactivity Uptake, Spleen ([1]; 1 min after injection, rats): 0.27 ± 0.12 % ID/g
- Radioactivity Uptake, Spleen ([1]; 3 min after injection, rats): 0.25 ± 0.17 % ID/g
- Radioactivity Uptake, Spleen ([1]; 5 min after injection, rats): 0.20 ± 0.08 % ID/g
- Radioactivity Uptake, Spleen ([1]; 10 min after injection, rats): 0.09 ± 0.04 % ID/g
- Radioactivity Uptake, Spleen ([1]; 30 min after injection, rats): 0.02 ± 0.02 % ID/g
- Radioactivity Uptake, Spleen ([1]; 60 min after injection, rats): 0.02 ± 0.01 % ID/g
- Radioactivity Uptake, Stomach ([1]; 1 min after injection, rats): 0.26 ± 0.04 % ID/g
- Radioactivity Uptake, Stomach ([1]; 3 min after injection, rats): 0.32 ± 0.12 % ID/g
- Radioactivity Uptake, Stomach ([1]; 5 min after injection, rats): 0.25 ± 0.26 % ID/g
- Radioactivity Uptake, Stomach ([1]; 10 min after injection, rats): 0.30 ± 0.24 % ID/g
- Radioactivity Uptake, Stomach ([1]; 30 min after injection, rats): 0.57 ± 0.41 % ID/g
- Radioactivity Uptake, Stomach ([1]; 60 min after injection, rats): 0.04 ± 0.05 % ID/g
- Radioactivity Uptake, Thymus ([1]; 1 min after injection, rats): 006 ± 0.02 % ID/g
- Radioactivity Uptake, Thymus ([1]; 3 min after injection, rats): 0.12 ± 0.04 % ID/g
- Radioactivity Uptake, Thymus ([1]; 5 min after injection, rats): 0.07 ± 0.01 % ID/g
- Radioactivity Uptake, Thymus ([1]; 10 min after injection, rats): 0.04 ± 0.03 % ID/g
- Radioactivity Uptake, Thymus ([1]; 30 min after injection, rats): 0.01 ± 0.00 % ID/g
- Radioactivity Uptake, Thymus ([1]; 60 min after injection, rats): 0.01 ± 0.00 % ID/g
- Radioactivity Uptake, Thyroid ([1]; 1 min after injection, rats): 0.30 ± 0.13 % ID/g
- Radioactivity Uptake, Thyroid ([1]; 3 min after injection, rats): 0.33 ± 0.07 % ID/g
- Radioactivity Uptake, Thyroid ([1]; 5 min after injection, rats): 0.27 ± 0.11 % ID/g
- Radioactivity Uptake, Thyroid ([1]; 10 min after injection, rats): 0.11 ± 0.04 % ID/g
- Radioactivity Uptake, Thyroid ([1]; 30 min after injection, rats): 0.02 ± 0.02 % ID/g
- Radioactivity Uptake, Thyroid ([1]; 60 min after injection, rats): 0.01 ± 0.00 % ID/g
- Radioactivity Uptake, Urine ([1]; 1 min after injection, rats): 0.05 ± 0.05 % ID/g
- Radioactivity Uptake, Urine ([1]; 3 min after injection, rats): 0.76 ± 0.56 % ID/g
- Radioactivity Uptake, Urine ([1]; 5 min after injection, rats): 0.68 ± 0.03 % ID/g
- Radioactivity Uptake, Urine ([1]; 10 min after injection, rats): 2.35 ± 2.63 % ID/g
- Radioactivity Uptake, Urine ([1]; 30 min after injection, rats): 8.83 ± 8.50 % ID/g
- Radioactivity Uptake, Urine ([1]; 60 min after injection, rats): 10.85 ± 12.48 % ID/g
- time for hepatic signal to decline to sufficiently low level ([1]; liver, after injection): ≤ 30 min
- blood half-life ([1]; rats, intravenous injection, estimated): less than 2 min
- reduction of uptake in the myocardium compared to 99mTc-MIBI [2]: one to two orders of magnitude
